Reference: the supplement of paper PMC5908809

What was measured:
[1] = tested on: normal NK cells expanded with K562-aAPC; experiment: percent inhibition of viability; higher = more inhibition; details: 72 h, IL-2 2.5 ng/mL
Procedure: (§1)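 Drug sensitivity and resistance testing on K562-aAPC-expanded normal NK cells: 5 concentrations (10-fold steps over a 10,000-fold range), 72 h at 37 °C, viability by CellTiter-Glo normalised to DMSO and benzethonium chloride controls; DSS from the fitted curve.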

[2] = tested on: DERL-7 (IL-2 2.5 ng/mL); experiment: as above; details: 72 h
[3] = tested on: IMC-1 (IL-2 20 ng/mL); experiment: as above; details: 72 h
[4] = tested on: KAI3 (IL-2 2.5 ng/mL); experiment: as above; details: 72 h
[5] = tested on: KHYG-1 (IL-2 2.5 ng/mL); experiment: as above; details: 72 h
[6] = tested on: NK-92 (IL-2 2.5 ng/mL); experiment: as above; details: 72 h
[7] = tested on: NK-YS (IL-2 2.5 ng/mL); experiment: as above; details: 72 h
[8] = tested on: NKL (IL-2 2.5 ng/mL); experiment: as above; details: 72 h
[9] = tested on: SNK-6 (IL-2 2.5 ng/mL); experiment: as above; details: 72 h
[10] = tested on: YT (IL-2 2.5 ng/mL); experiment: as above; details: 72 h
[11] = tested on: normal primary NK cells, pool 1 (3 donors) (IL-2 2.5 ng/mL); experiment: as above; details: 72 h
[12] = tested on: normal primary NK cells, pool 1 (3 donors), resting (IL-2 0 ng/mL); experiment: as above; details: 72 h
[13] = tested on: normal primary NK cells, pool 2 (3 donors) (IL-2 2.5 ng/mL); experiment: as above; details: 72 h
[14] = tested on: normal primary NK cells, pool 3 (3 donors) (IL-2 2.5 ng/mL); experiment: as above; details: 72 h
[15] = tested on: normal NK cells expanded with K562-aAPC; experiment: drug sensitivity score (DSS) (DSS units); higher = more sensitive; extreme values may be limits of the assay; details: 72 h; IL-2 2.5 ng/mL
Procedure: as §1

[16] = tested on: DERL-7 (IL-2 2.5 ng/mL); experiment: as above; details: 72 h
[17] = tested on: IMC-1 (IL-2 20 ng/mL); experiment: as above; details: 72 h
[18] = tested on: KAI3 (IL-2 2.5 ng/mL); experiment: as above; details: 72 h
[19] = tested on: KHYG-1 (IL-2 2.5 ng/mL); experiment: as above; details: 72 h
[20] = tested on: NK-92 (IL-2 2.5 ng/mL); experiment: as above; details: 72 h
[21] = tested on: NK-YS (IL-2 2.5 ng/mL); experiment: as above; details: 72 h
[22] = tested on: NKL (IL-2 2.5 ng/mL); experiment: as above; details: 72 h
[23] = tested on: SNK-6 (IL-2 2.5 ng/mL); experiment: as above; details: 72 h
[24] = tested on: YT (IL-2 2.5 ng/mL); experiment: as above; details: 72 h
[25] = tested on: normal primary NK cells, pool 1 (3 donors) (IL-2 2.5 ng/mL); experiment: as above; details: 72 h
[26] = tested on: normal primary NK cells, pool 1 (3 donors), resting (IL-2 0 ng/mL); experiment: as above; details: 72 h
[27] = tested on: normal primary NK cells, pool 2 (3 donors) (IL-2 2.5 ng/mL); experiment: as above; details: 72 h
[28] = tested on: normal primary NK cells, pool 3 (3 donors) (IL-2 2.5 ng/mL); experiment: as above; details: 72 h

O=C(Nc1cccnc1)N1CCC(Cc2cccc(Oc3ccc(C(F)(F)F)cn3)c2)CC1 [PF-3845] (max concentration tested 10000 nM)
percent inhibition of viability [%]
Details | 1 nM | 10 nM | 100 nM | 1000 nM | 10000 nM
[1] | -4.39 | -6.94 | -8.54 | -9.15 | -10
[2] | 3.63 | -4.44 | 5.89 | 0.51 | 46.1
[3] | 0.9 | -0.47 | 4.7 | 13.8 | 26.2
[4] | -1.12 | -6.82 | 4.46 | 0.3 | 25
[5] | -4.25 | -6.89 | -4.44 | 4.55 | 60.7
[6] | -1.76 | -21.3 | -8.96 | 4.25 | 35.6
[7] | 4.37 | -3.27 | 0.47 | 10.5 | 75
[8] | -5.58 | -15.9 | -8.48 | 16.5 | 66.2
[9] | -10 | -1.35 | -9.77 | -1.56 | 25.3
[10] | -2.27 | -9.8 | 1.6 | 5.87 | 44.7
[11] | -3.8 | -8.73 | -11.2 | 2.66 | 64.3
[12] | -8.45 | -13.6 | -17.7 | -4.4 | 74
[13] | -12.4 | 3.71 | -1.82 | -3.09 | 43.9
[14] | -11.4 | -5.5 | -11.2 | -10.4 | 19.9

Details | drug sensitivity score
[15] | 0
[16] | 2.45
[17] | 2.22
[18] | 0.99
[19] | 4
[20] | 2.38
[21] | 5.91
[22] | 6.2
[23] | 0.86
[24] | 3.29
[25] | 3.87
[26] | 3.74
[27] | 2
[28] | 0.32

c1ccc2c(CCNc3ccc(Nc4ccncc4)cc3)c[nH]c2c1 [Serdemetan] (max concentration tested 10000 nM)
percent inhibition of viability [%]
Details | 1 nM | 10 nM | 100 nM | 1000 nM | 10000 nM
[1] | 3.3 | -0.88 | -3.23 | 41.7 | 99.6
[2] | 1.57 | 3.06 | 5.72 | 93 | 99.8
[3] | -3.43 | -4.48 | -1.24 | 6.25 | 86.2
[4] | 1.77 | -7.13 | 13.3 | 71.7 | 96.4
[5] | -4.53 | -3.7 | -1.91 | 20.5 | 94.6
[6] | -2.5 | -9.68 | -24.1 | 16.9 | 89.1
[7] | -3.94 | -6.06 | -3.31 | 54.3 | 93.6
[8] | -4.48 | -6.86 | 12.5 | 103 | 96.3
[9] | 1.74 | -8.4 | -40.5 | 2.69 | 97.8
[10] | -0.01 | -0.09 | 2.11 | 16.2 | 89.5
[11] | -2.89 | -12 | -5.86 | 54.6 | 98
[12] | -1.96 | -20.5 | -16.5 | 78.3 | 90.8
[13] | -12.5 | -4.95 | -4.4 | 34 | 94.8
[14] | -9.21 | -2.68 | -1.24 | 41.2 | 98.2

Details | drug sensitivity score
[15] | 11
[16] | 17.7
[17] | 5.74
[18] | 15.1
[19] | 8.49
[20] | 7.67
[21] | 11.7
[22] | 20.1
[23] | 5.77
[24] | 7.62
[25] | 12
[26] | 14
[27] | 9.95
[28] | 10.8
